Assay results from patent publication US20240358681A1, “METHODS OF USE OF PPAR AGONIST COMPOUNDS AND PHARMACEUTICAL COMPOSITIONS THEREOF” (Mitobridge, Inc., priority 2021, published 2024).

What was measured:
PPARδ = molecular target: T1, PPARδ (Mus musculus, UniProt P35396); experiment: Mouse EC50 (PPARδ agonist)
T1 sequence (P35396 1-440): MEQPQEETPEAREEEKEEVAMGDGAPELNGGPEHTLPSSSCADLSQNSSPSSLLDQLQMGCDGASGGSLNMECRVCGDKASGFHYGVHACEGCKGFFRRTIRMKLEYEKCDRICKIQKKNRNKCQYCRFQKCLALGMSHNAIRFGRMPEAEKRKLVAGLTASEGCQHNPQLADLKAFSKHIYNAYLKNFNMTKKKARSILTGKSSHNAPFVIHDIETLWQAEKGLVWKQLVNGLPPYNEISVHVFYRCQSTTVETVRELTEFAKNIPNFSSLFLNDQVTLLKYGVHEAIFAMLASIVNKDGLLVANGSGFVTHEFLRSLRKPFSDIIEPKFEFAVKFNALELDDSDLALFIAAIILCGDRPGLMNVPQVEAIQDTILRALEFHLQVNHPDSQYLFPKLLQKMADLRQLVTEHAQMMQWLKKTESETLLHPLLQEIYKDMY

[1] = 26-week rat GLP toxicity study; format: in vivo
LHON/Leigh cells = experiment: Mitochondrial fatty acid oxidation assay by high-resolution respirometry (palmitate-mediated OXPHOS); format: cell-based, human; details: Leigh/LHON cell line, 24 hours treatment; FIG. 4B
Experimental: LHON/Leigh cells were treated with DMSO or Compound (I) in complete media supplemented with 0.5 mM carnitine for 24 hours prior to assaying. Treated cells were trypsinized, collected in Krebs-Henseleit Buffer (KHB) and pelleted.
Palmitate-mediated OXPHOS was measured using an Oxygraph-2k (Oroboros Instruments). Cells (1×10^6) in KHB were loaded into each chamber with 250 μM BSA or BSA-conjugated palmitate. KHB was added to reach a final volume of 2 mL. Respiration was measured at 37° C. as previously described in Zhang, Z., et al., Primary respiratory chain disease causes tissue-specific dysregulation of the global transcriptome and nutrient-sensing signaling network. (1932-6203). Briefly, BSA and BSA-conjugated palmitate treated cells were analyzed simultaneously in two separate chambers. […]
Data were analyzed using DatLab6 software. […] Non-mitochondrial respiration was measured after addition of Rotenone and Antimycin A sequentially (ROX, residual oxygen consumption, background) and subtracted from maximal respiration values. […]

[2] = Tissue exposure in skeletal muscle (gastrocnemius) of aged DIO mice; format: in vivo, mouse; details: 30 mg/kg oral once daily, 5 weeks, FIG. 6A
Experimental: All animal studies were performed in accordance with Charles River Laboratories animal welfare protocols. Male Diet-Induced Obese (DIO) C57BL/6NTac mice 28 weeks of age were fed a high fat diet. 20 mice were randomized based on bodyweight into two cohorts of 10 mice each. Five mice were assigned to each treatment group in each cohort (i) vehicle or (ii) Compound (I) at 30 mg/kg via (n=10 total animals per treatment). […] Mice were acclimatized to the treadmill room for one hour on days of training or endurance runs. After an initial 5 min exploration period the treadmill belt moved at 5 m/min for 10 min with the motivation grid intensity set to 0.46 mA. Mice required a few visits to the grid to learn to walk/run on the moving belt and avoid the electric grid shock. After two acclimatization periods the mice learned to avoid the electric grid and stay on the moving belt, with fewer visits to the electric grid. The maximum speed for the endurance run was capped at 16.5 m/min based on speed acclimation runs, which represents the speed at which 25% of animals are running in the top ⅔ of the treadmill at a 5° slope. The mice were considered exhausted if they stayed on the electric grid with no limbs on the treadmill belt for 10 seconds.
Before and after the exhaustion run, blood samples were obtained via a tail vein nick. […]

[3] = 52-week monkey GLP toxicity study; format: in vivo

SMILES: Cc1cnc(-c2ccc(C(F)(F)F)cc2)n1Cc1ccccc1OCCC[C@@H](C)CC(=O)O [Compound (I), (R)-3-Methyl-6-(2-((5-methyl-2-(4-(trifluoromethyl)phenyl)-1H-imidazol-1-yl)methyl)-phenoxy)hexanoic acid]
- EC50 (PPARδ): 0.014 µM
- no observed adverse effect level (NOAEL) [1]: highest tested dose
- fatty acid-mediated OXPHOS (LHON/Leigh cells): significantly increased
- skeletal muscle exposure [2]: detectable and covered the mouse EC50
- no observed adverse effect level (NOAEL) [3]: highest tested dose
